From patent US6403590B1, “Use of certain isoquinolinesulfonyl compounds for the treatment of glaucoma and ocular ischemia” (Alcon Laboratories, Inc., priority 1995, dated 2002)

Experiments:
[1] = tested on: Bulbar Conjunctiva (conjunctival hyperemia); assay: Guinea pig conjunctival hyperemia model; format: in vivo; details: cumulative incidence; percent of eyes scoring +2 or more; scored 1, 2, 3, 4 hours after instillation
Experimental: A guinea pig model was used to assess the potential of the compounds to cause conjunctival hyperemia as measured by vasodilation. Compound was instilled and hyperemia was scored at 1, 2, 3, and 4 hours following dosing. Reported above is the cumulative incidence of hyperemia over the 4 hour period. Incidence of hyperemia (Bulbar Conjunctiva) was calculated as the percent of eyes scoring +2 or more, according to the following graded scale: 0 Normal appearance of vessels at limbus and rectus muscle 1 Enlargement of vessels normally visible at limbus and rectus muscle 2 Branching of vessels at limbus, additional vessels visible 3 Additional vessels visible in open bulbar conjunctival areas 4 Diffuse redness in open bulbar conjunctival areas

[2] = tested on: laser-induced hypertensive primates; assay: IOP in laser-induced ocular hypertensive monkeys (lasered MIOP), topical dosing; format: in vivo, monkey; details: for MIOP IOP % Reduction, 1 hour: 1 hour post-dose; for MIOP IOP % Reduction, 3 hours: 3 hours post-dose; for MIOP IOP % Reduction, 6 hours: 6 hours post-dose
Experimental: Monkey intraocular pressure (MIOP) were obtained from laser-induced hypertensive primates in the manner described in Examples 1 and 4 below at 1, 3, and 6 hours post-dose.
(§1) The hydrochloride salt of Compound II, also known as fasudil hydrochloride or just fasudil, was topically administered to eyes of ocular normotensive and hypertensive monkeys, New Zealand Albino (NZA) and Dutch Belted (DB) rabbits.

[3] = tested on: New Zealand Albino (NZA) rabbit; assay: IOP in New Zealand Albino rabbits, topical dosing; format: in vivo; details: four hour dose response
Experimental: as §1
A dose study similar to that described in Example 2 was conducted with the NZA rabbit. Compound II (hydrochloride) was administered in a topical ocular fashion in doses of 50, 125 and 250 μg.
Other isoquinolinesulfonamides were topically administered to the eyes of New Zealand Albino (NZA) rabbits.
All drugs were administered to eyes in a topical manner at a dose=500 μg (2×25 μl). All compounds were formulated in phosphate buffered saline containing 0.01% benzalkonium chloride, and in all instances N=7.

Dutch Belted (DB) rabbit = assay: IOP in Dutch Belted rabbits, topical dosing; format: in vivo
Experimental: as §1
Compound II (hydrochloride) was administered topically to the eyes of Dutch Belted (DB) rabbits in doses of 75 and 150 μg.

[4] = tested on: ocular normotensive monkey; assay: IOP in ocular normotensive monkeys, topical dosing; format: in vivo, cynomolgus monkey
Experimental: as §1
The effect of repeated doses of Compound II on the magnitude and duration of IOP reduction was evaluated in ocular normotensive monkeys.

Compound | Guinea Pig Hyperemia (Cumulative over 4 hours) [1] [%] | MIOP IOP % Reduction, 1 hour ([2]; dose 1000 μg) [%] | MIOP IOP % Reduction, 3 hours ([2]; dose 1000 μg) [%] | MIOP IOP % Reduction, 6 hours ([2]; dose 1000 μg) [%] | MIOP IOP % Reduction, 1 hour ([2]; dose 500 μg) [%] | MIOP IOP % Reduction, 3 hours ([2]; dose 500 μg) [%] | MIOP IOP % Reduction, 6 hours ([2]; dose 500 μg) [%] | IOP lowering effect ([2]; laser-induced hypertensive primates, compared with the other compounds of Example E) | IOP lowering [3] | IOP lowering (Dutch Belted (DB) rabbit) | IOP lowering ([2]; ocular hypertensive (laser-induced) primates, topical) | IOP reduction after repeated doses ([4]; ocular normotensive monkeys, total of 900 μg in three doses, ten minutes apart) | IOP lowering ([4]; ocular normotensive primates, topical)
CC1CN(S(=O)(=O)c2cccc3cnccc23)CCN1 (stereo not shown) [Example H-7, 1-(5-isoquinolinesulfonyl)-3-methylpiperazine] | 0 | 30.9 | 20.9 | 11.6 | – | – | – | – | – | – | – | – | –
CC1CN(S(=O)(=O)c2cccc3cnccc23)C(C)CN1 (stereo not shown) [D, 1-(5-isoquinolinesulfonyl)-2,5-dimethylpiperazine] | 20 | – | – | – | 36.3 | 32.8 | 19.3 | markedly superior IOP lowering effect | – | – | – | – | –
O=S(=O)(c1cccc2c(Cl)nccc12)N1CCNCC1 [1-(1-chloro-5-isoquinolinesulfonyl)-piperazine] | 10 | – | – | – | 7.9 | 11.9 | 9.4 | – | – | – | – | – | –
O=S(=O)(c1cccc2cnccc12)N1CCCNCC1 [Fasudil, hexahydro-1-(5-isoquinolinylsulfonyl)-1H-1,4-diazepine] | 75 | – | – | – | 21.9 | 14.6 | 23.4 | – | IOP was marketedly lowered below base line | lowered IOP in the DB rabbit; however, the reduction in IOP was not sustained | effectively lowered IOP | significant IOP reduction | effectively lowered IOP
